Data from patent US8901090B2, “Method of treating otitis externa using macrocyclic lactone compound” (Galderma S.A., priority 2010, dated 2014).

Assay: Topical treatment of patients with acute otitis externa with ivermectin lotion (informal trials, Examples 3-6)
Format: in vivo, human
Excerpt: The otic composition of the present invention described above is applied into the external auditory canal and on the auricle of the affected ear. The lotion, gel, or ointment can be applied with an applicator into the external auditory canal by the patient or others. Preferably, the applicator has a smooth surface, for example, a glass rod, coated with the lotion, gel, or ointment. Although cotton swab can be used, precaution should be exercised, because cotton swab is rough and it can cause irritation to the epidermis of the external auditory canal, and cotton residue left in the ear canal can cause further complication of the condition. The composition in the form of liquid suspension can be dropped or sprayed into the external auditory canal. The otic composition can be packaged for proper dosing by the patients. Moreover, the otic composition can also be integrated into or applied on an absorbent material, such as a strip of cotton fabric or medical dressing, and then the absorbent material is inserted into the external auditory canal by a physician as needed.
Operating with informed consent of individuals, individuals were treated with the otic composition and the method of the present invention for treating otitis externa, as described in Examples 3 to 7.
A person presented with acute otitis externa, symptoms including pain, tenderness, and swelling of the right ear canal. […]

ivermectin
effectiveness in treating otitis externa (otic composition containing ivermectin at a concentration as low as 0.075%): effective
time until dramatic resolution of the symptoms (summary of Examples 3 through 6, otic composition containing 0.075% of ivermectin): ≤ 24 h
